Test results taken from ChEMBL document CHEMBL5149987, “Design, Synthesis, and Evaluation of WD-Repeat-Containing Protein 5 (WDR5) Degraders” (J Med Chem, 2021).
Activity calls are given as the source filed them. The calls are words filed in the database; no cut-off is given here.

Experiments:
[1] = biological target: T1, WD repeat-containing protein 5 (Homo sapiens, UniProt P61964); assay: (§1) Displacement of N-(4'-((17-(5,5-difluoro-7-(1H-pyrrol-2-yl)-5H-5l4,6l4-dipyrrolo[1,2-c:2',1'-f][1,3,2]diazaborinin-3-yl)-15-oxo-4,7,10-trioxa-14-azaheptadecyl)carbamoyl)-4-(4-methylpiperazin-1-yl)-[1,1'-biphenyl]-3-yl)-6-hydroxy-4-(trifluoromethyl)nicotinamide tracer from N-/C-terminal NanoLuc-fused full-length WDR5 (unknown origin) transfected in HEK293T cells incubated for 2 hrs by NanoBRET assay; type: cell-based
[2] = biological target: T1, WD repeat-containing protein 5; assay: as §1, with “cell lysate” for “cells”; type: subcellular
[3] = biological target: T1, WD repeat-containing protein 5
Description: Binding affinity to recombinant WDR5 (unknown origin) expressed in Escherichia coli BL21 assessed as shift in melting temperature by DSF assay

[4] = biological target: T1, WD repeat-containing protein 5; assay: Binding affinity to recombinant WDR5 (unknown origin) expressed in Escherichia coli BL21 assessed as dissociation constant by isothermal titration calorimetry
[5] = biological target: T1, WD repeat-containing protein 5; remark: listed apart in the source
Description: Binding affinity to recombinant WDR5 (unknown origin) expressed in Escherichia coli BL21 assessed as change in enthalpy by isothermal titration calorimetry

[6] = biological target: T1, WD repeat-containing protein 5; remark: listed apart in the source
Description: Binding affinity to recombinant WDR5 (unknown origin) expressed in Escherichia coli BL21 assessed as change in entropy by isothermal titration calorimetry

[7] = tested on: MV4-11; assay: Cytotoxicity against human MV4-11 cells assessed as defect in cell proliferation at 10 uM incubated for 15 days with replacement of fresh medium containing compound on every third day; type: functional, cell-based; details: time 15.0 day
[8] = tested on: MV4-11; assay: Cytotoxicity against human MV4-11 cells expressing VHL assessed as defect in cell proliferation at 5 to 10 uM incubated for 15 days with replacement of fresh medium containing compound on every third day; type: functional, cell-based; details: dose 5-10 µM, time 15.0 day

Row | SMILES | IC50 [1] [µM] | IC50 [2] [µM] | deltaTm [3] [K] | Kd [4] [µM] | deltaTm ([3]; filed as modulator) [K] | deltaH [5] [kcal/mol] | TdeltaS [6] [kcal/mol] | Activity [7] | Activity [8]
1 | Cc1ncsc1-c1ccc(CNC(=O)[C@@H]2C[C@@H](O)CN2C(=O)[C@@H](NC(=O)CCOCCOCCOCCOCCOCCOCCOc2ccc(-c3cn4c(n3)CCC4)cc2CNC(=O)Cc2ccc(Cl)c(Cl)c2)C(C)(C)C)cc1 | ≥ 50 | ≥ 50 | 4.5 | – | – | – | – | – | –
2 | Cc1ncsc1-c1ccc(CNC(=O)[C@@H]2C[C@@H](O)CN2C(=O)[C@@H](NC(=O)CCOCCOCCOCCOc2ccc(-c3cn4c(n3)CCC4)cc2CNC(=O)Cc2ccc(Cl)c(Cl)c2)C(C)(C)C)cc1 | ≥ 50 | ≥ 50 | 3.6 | – | – | – | – | – | –
3 | Cc1ncsc1-c1ccc(CNC(=O)[C@@H]2C[C@@H](O)CN2C(=O)[C@@H](NC(=O)CCOCCOCCOCCOCCOc2cc(-c3cn4c(n3)CCC4)ccc2CNC(=O)Cc2ccc(Cl)c(Cl)c2)C(C)(C)C)cc1 | ≥ 50 | ≥ 50 | 3.4 | – | – | – | – | – | –
4 | COc1cc(C(=O)NCCOCCNC(=O)c2ccc(-c3ccc(N4CCN(C)CC4)c(NC(=O)c4c[nH]c(=O)cc4C(F)(F)F)c3)cc2)ccc1NC(=O)[C@@H]1N[C@@H](CC(C)(C)C)[C@](C#N)(c2ccc(Cl)cc2F)[C@H]1c1cccc(Cl)c1F | ≥ 50 | ≥ 50 | 0.9 | – | – | – | – | – | –
5 | Cc1ncsc1-c1ccc(CNC(=O)[C@@H]2C[C@@H](O)CN2C(=O)[C@@H](NC(=O)CCOCCOCCOCCOCCOCCOc2ccc(-c3cn4c(n3)CCC4)cc2CNC(=O)Cc2ccc(Cl)c(Cl)c2)C(C)(C)C)cc1 | ≥ 50 | ≥ 50 | 4.3 | – | – | – | – | – | –
6 | COc1cc(C(=O)NCCOCCOCCOCCOCCOCCOCCOCCNC(=O)c2ccc(-c3ccc(N4CCN(C)CC4)c(NC(=O)c4c[nH]c(=O)cc4C(F)(F)F)c3)cc2)ccc1NC(=O)[C@@H]1N[C@@H](CC(C)(C)C)[C@](C#N)(c2ccc(Cl)cc2F)[C@H]1c1cccc(Cl)c1F | ≥ 50 | ≥ 50 | 0.3 | – | – | – | – | – | –
7 | COc1ccc(-c2cn3c(n2)CCC3)cc1CNC(=O)Cc1ccc(Cl)c(Cl)c1 | ≥ 50 | ≥ 50 | – | 125 | 4.2 | -10 | 0.7 | – | –
8 | Cc1ncsc1-c1ccc(CNC(=O)[C@@H]2C[C@@H](O)CN2C(=O)[C@@H](NC(=O)CCOCCOCCOCCOCCOCCOCCOCCOc2ccc(-c3cn4c(n3)CCC4)cc2CNC(=O)Cc2ccc(Cl)c(Cl)c2)C(C)(C)C)cc1 | ≥ 50 | ≥ 50 | 4.6 | – | – | – | – | – | –
9 | COc1cc(C(=O)NCc2ccc(CNC(=O)c3ccc(-c4ccc(N5CCN(C)CC5)c(NC(=O)c5c[nH]c(=O)cc5C(F)(F)F)c4)cc3)cc2)ccc1NC(=O)[C@@H]1N[C@@H](CC(C)(C)C)[C@](C#N)(c2ccc(Cl)cc2F)[C@H]1c1cccc(Cl)c1F | ≥ 50 | ≥ 50 | 0.7 | – | – | – | – | – | –
10 | Cc1ncsc1-c1ccc(CNC(=O)[C@@H]2C[C@@H](O)CN2C(=O)[C@@H](NC(=O)CCOCCOc2ccc(-c3cn4c(n3)CCC4)cc2CNC(=O)Cc2ccc(Cl)c(Cl)c2)C(C)(C)C)cc1 | ≥ 50 | ≥ 50 | 7 | – | – | – | – | – | –
11 | Cc1ncsc1-c1ccc(CNC(=O)[C@@H]2C[C@@H](O)CN2C(=O)[C@@H](NC(=O)CCOCCOCCOc2ccc(-c3cn4c(n3)CCC4)cc2CNC(=O)Cc2ccc(Cl)c(Cl)c2)C(C)(C)C)cc1 | – | – | – | – | – | – | – | Active | Active
